Test results published in PMC7292872 (Saudi Pharmaceutical Journal : SPJ, 2020).

Target: Human serum albumin (HSA) (Homo sapiens, UniProt P02768)
Assay: UV-Vis absorption titration at […] nm
Assay type: binding

Sequence of Human serum albumin (HSA) (P02768 25-609): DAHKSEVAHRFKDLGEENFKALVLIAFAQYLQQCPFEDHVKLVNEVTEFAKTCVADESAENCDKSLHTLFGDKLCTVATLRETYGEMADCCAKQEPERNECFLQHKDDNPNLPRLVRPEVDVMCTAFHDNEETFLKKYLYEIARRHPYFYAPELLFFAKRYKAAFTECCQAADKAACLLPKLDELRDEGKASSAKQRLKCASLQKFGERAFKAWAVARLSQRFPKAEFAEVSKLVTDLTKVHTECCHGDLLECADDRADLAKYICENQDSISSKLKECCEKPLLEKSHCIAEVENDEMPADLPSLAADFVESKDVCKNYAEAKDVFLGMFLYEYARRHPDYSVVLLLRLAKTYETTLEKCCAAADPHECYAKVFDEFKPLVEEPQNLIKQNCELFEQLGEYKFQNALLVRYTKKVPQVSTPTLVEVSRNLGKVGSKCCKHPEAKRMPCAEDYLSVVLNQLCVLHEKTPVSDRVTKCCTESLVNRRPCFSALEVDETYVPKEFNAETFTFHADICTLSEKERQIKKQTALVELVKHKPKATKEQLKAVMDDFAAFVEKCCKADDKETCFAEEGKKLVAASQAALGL

Kd: 990 µM
SMILES: CCCc1nc2c(C)cc(-c3nc4ccccc4n3C)cc2n1Cc1ccc(-c2ccccc2C(=O)O)cc1 [TLM]
